Results reported in patent US20120100227A1, “KINASE PROTEIN BINDING INHIBITORS” (University of Florida Research Foundation, priority 2009, published 2012).

How the values were obtained:
[1] = system: colon cancer HCT116 p53−/− cells; experiment: Apoptosis assay, HCT116 p53−/−; type: cell-based, human; conditions: dose-dependent
Procedure: (§1) Apoptosis Assay. Detached cells were collected and fixed in 3.7% formaldehyde in 1×PBS solution for the apoptosis assay. Detection of apoptosis was done with Hoechst 33342 staining. The percent of apoptotic cells was calculated as a ratio of apoptotic detached cells divided by the total number of cells in three independent experiments in several fields with the fluorescent microscope. For each experiment 300 cells per treatment were counted.
(§2) To study M13 effect in colon cancer cells and its dependence on p53 pathway, we did similar experiments to BT474 cells with colon cancer HCT116 p53−/− and p53+/+ cells. […] Thus, the in vitro effect of M13 on viability, detachment and apoptosis was p53-independent.

HCT116p53+/+ cells = experiment: Tumor growth in nude mice, HCT116 p53+/+; type: in vivo; conditions: HCT116 p53+/+ subcutaneous tumors, 30 mg/kg IP; no significant difference to p53−/−
Procedure: (§3) Tumor Growth in Nude Mice in vivo. Female nude mice, 6 weeks old, were purchased from Harlan Laboratory. The mice were maintained in the animal facility and all experiments were performed in compliance with NIH animal-use guidelines and IACUC protocol approved by the UF Animal Care Committee. BT474 cells were injected, 2×10^6 cells/injection subcutaneously. HCT116p53−/− and HCT116p53+/+ cells were injected subcutaneously into the left and right side of the same mice to decrease variations. In preliminary experiment different doses of the compound were introduced into the mice, and 30-50 mg/kg was chosen as optimal, non-toxic doses. The day after injection, the M13 compound was introduced by IP injection at 30 mg/kg dose daily 5 days/week for 3 weeks. Tumor diameters were measured with calipers and tumor volume in mm^3 was calculated using this formula=(width)^2×Length/2. At the end of experiment, tumor weight and volume was determined.
(§4) M13 decreased similarly colon tumorigenesis in both HCT116 p53+/+ and p53−/− in vivo. […] Thus, in vivo effect of M13 on tumorigenesis is p53-independent.

[2] = system: colon cancer HCT116 p53+/+ cells; experiment: Detachment assay, HCT116 p53+/+; type: cell-based, human; conditions: dose-dependent
Procedure: (§5) Detachment Assay. Cells were plated with and without inhibitors for 24 hours, and detached and attached cells were counted in a hemocytometer. We calculated the percent of detachment by dividing the number of detached cells by the total number of cells. The percent of detached cells was calculated in three independent experiments.
as §2

[3] = target: T1, complex of FAK and Mdm-2 in BT474 cells (Homo sapiens, UniProt Q05397); experiment: Immunoprecipitation of FAK, complex with Mdm-2; type: cell-based; design: dose or concentration left out as unconfirmed
T1 construct: We immunoprecipitated FAK and found complex of FAK with Mdm-2; endogenous in cells; host or cells: BT474 breast cancer cells
T1 sequence (Q05397 whole entry, one chain of several): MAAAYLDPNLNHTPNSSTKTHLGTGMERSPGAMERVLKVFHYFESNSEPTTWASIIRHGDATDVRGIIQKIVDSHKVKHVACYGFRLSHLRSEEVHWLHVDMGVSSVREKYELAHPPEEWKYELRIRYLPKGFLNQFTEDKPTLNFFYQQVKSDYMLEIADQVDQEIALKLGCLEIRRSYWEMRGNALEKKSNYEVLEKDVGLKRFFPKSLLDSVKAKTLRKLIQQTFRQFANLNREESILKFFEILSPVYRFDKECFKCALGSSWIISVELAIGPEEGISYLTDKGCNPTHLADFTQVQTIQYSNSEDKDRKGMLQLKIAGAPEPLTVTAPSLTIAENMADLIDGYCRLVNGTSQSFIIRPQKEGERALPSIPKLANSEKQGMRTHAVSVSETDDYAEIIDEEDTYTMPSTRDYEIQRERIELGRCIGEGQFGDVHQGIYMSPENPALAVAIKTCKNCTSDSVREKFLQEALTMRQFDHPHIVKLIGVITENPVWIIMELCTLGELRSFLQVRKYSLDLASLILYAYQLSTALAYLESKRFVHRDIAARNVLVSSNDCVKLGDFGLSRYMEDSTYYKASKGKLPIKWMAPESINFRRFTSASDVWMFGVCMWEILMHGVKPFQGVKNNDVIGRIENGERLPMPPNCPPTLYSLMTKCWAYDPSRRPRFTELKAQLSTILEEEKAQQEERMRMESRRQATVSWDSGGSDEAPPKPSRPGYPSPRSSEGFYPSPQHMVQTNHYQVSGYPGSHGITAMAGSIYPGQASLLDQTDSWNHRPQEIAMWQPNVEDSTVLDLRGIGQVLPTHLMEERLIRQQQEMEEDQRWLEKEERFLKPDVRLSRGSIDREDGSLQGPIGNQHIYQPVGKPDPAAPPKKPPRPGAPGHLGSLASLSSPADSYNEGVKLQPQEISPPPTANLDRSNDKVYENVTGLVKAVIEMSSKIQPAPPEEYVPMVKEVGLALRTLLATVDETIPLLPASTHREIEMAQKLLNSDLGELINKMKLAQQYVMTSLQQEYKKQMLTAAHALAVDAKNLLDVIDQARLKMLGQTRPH
Procedure: Immunoprecipitation. Immunoprecipitation was performed according to the standard protocol. In brief, the pre-cleared lysates with equal amount of protein were incubated with 1 μg of primary antibody and 30 μl A/G agarose beads overnight at 4° C. The precipitates were washed with lysis buffer three times and re-suspended in 2×Laemmli buffer. The boiled samples were used for Western blotting, as described above.
M13 disrupts complex of FAK and Mdm-2 in BT474 cells. We immunoprecipitated FAK and found complex of FAK with Mdm-2, confirming and reproducing data of Lim et al, Molecular Cell, 2008. At […] dose of M13, there was decreased level of FAK and complex with Mdm-2.

[4] = design: species or system nude mice; conditions: female, nude, mouse, in vivo
Procedure: as §3

[5] = system: BT474 breast cancer cells; experiment: Apoptosis assay (Hoechst 33342), BT474; type: cell-based, human; conditions: BT474, Hoechst 33342 staining of detached cells
Procedure: as §1

[6] = system: BT474 breast cancer cells; experiment: Cell viability (MTT) assay, BT474; type: cell-based, human; conditions: different concentrations, 24 hours
Procedure: (§6) Cell lines and culture. BT474 breast carcinoma cells were maintained in RPMI1640 medium supplemented with 10% fetal bovine serum (FBS), 5 μg/ml insulin, and 1 μg/ml penicillin/streptomycin. The MCF-7 cell line was obtained from ATCC and maintained according to the manufacturer's protocol. HCT116p53+/+ and p53−/− colon cancer cells were maintained in McCoy's5A medium with 10% FBS.
(§7) Cell Viability Assay. The cells were treated with compounds at different concentrations for 24 hours. The 3-(4,5-dimethylthiazol-2-yl)-5-(3-carboxymethoxyphenyl)-2-(4-sulfophenyl)-2H-tetrazolium compound from Promega Viability kit (Madison, Ill.) was added, and the cells were incubated at 37 C for 1-2 hours. The optical density on 96-plate was analyzed with a microplate reader at 490 nm to determine cell viability.

[7] = system: different cancer cells, including breast, melanoma, colon and pancreatic cancers; experiment: MTT cell viability assay in different cancer cells; type: cell-based, human; conditions: MTT assay with 24 M inhibitors, M13 the best of all tested
Procedure: as §7
The name of this compound is Monotritylthymidine and it is available and was ordered from Sigma.

HCT116p53−/− cells = experiment: Tumor growth in nude mice, HCT116 p53−/−; type: in vivo; conditions: HCT116 p53−/− subcutaneous tumors, 30 mg/kg IP; no significant difference to p53+/+
Procedure: as §3, §4

BT474 cells [8] = experiment: Tumor growth in nude mice, BT474; type: in vivo; conditions: BT474 subcutaneous tumors, 30 mg/kg IP daily 5 days/week for 3 weeks
Procedure: as §3
M13 decreased breast tumorigenesis in vivo Breast cancer BT474 cells were implanted into the mice to generate tumors.

[9] = system: MCF-7 breast cancer cells; experiment: Viability, detachment and apoptosis, MCF-7; type: cell-based, human; conditions: MCF-7, compared with BT474
Procedure: as §6, §7, §5
Apoptosis Assay. […] The percent of apoptotic cells was calculated as a ratio of apoptotic detached cells divided by the total number of cells in three independent experiments in several fields with the fluorescent microscope. […]

[10] = system: colon cancer HCT116 p53−/− cells; experiment: Detachment assay, HCT116 p53−/−; type: cell-based, human; conditions: dose-dependent
Procedure: as §5, §2

BT474 cells [11] = experiment: Western blotting of BT474 cells (FAK, Y397-FAK, Mdm-2, p53, caspase-8); type: cell-based, human; conditions: BT474, different doses of M13, Western blot
Procedure: Western Blotting. Cells or homogenized tumor samples were washed twice with cold 1×PBS and lysed on ice for 30 minutes in a buffer containing: 50 mM Tris-HCl (pH 7.5), 150 mM NaCl, 1% Triton-X, 0.5% NaDOC, 0.1% SDS, 5 mM EDTA, 50 mM NaF, 1 mM NaVO3, 10% glycerol and protease inhibitors: 10 μg/ml leupeptin, 10 μg/ml PMSF and 1 μg/m1 aprotinin. The lysates were cleared by centrifugation at 10,000 rpm for 30 minutes at 4° C. Protein concentrations were determined using a Bio-Rad Kit. The boiled samples were loaded on Ready SDS-10% PAGE gels (Bio Rad, Inc) and used for Western blot analysis with the protein-specific antibody. Immunoblots were developed with chemiluminescence Renaissance reagent (NEN Life Science Products, Inc). For quantification, densitometry of protein bands was performed with NIH Scion Image software.
M13 caused dose-dependent increase of Mdm-2, decrease of FAK and activation of caspase-8 in BT474 cells. We treated BT474 cells with different doses of M13 and performed Western blotting with anti-FAK, Y397-FAK, Mdm-2, p53 and caspase-8 antibodies.

[12] = system: colon cancer HCT116 p53+/+ cells; experiment: Apoptosis assay, HCT116 p53+/+; type: cell-based, human; conditions: dose-dependent
Procedure: as §1, §2

[13] = system: colon cancer HCT116 p53−/− cells; experiment: Cell viability assay, HCT116 p53−/−; type: cell-based, human; conditions: dose-dependent
Procedure: as §6, §7, §2

[14] = system: BT474 breast cancer cells; experiment: Detachment assay, BT474; type: cell-based, human; conditions: BT474, 24 hours
Procedure: as §5

[15] = system: colon cancer HCT116 p53+/+ cells; experiment: Cell viability assay, HCT116 p53+/+; type: cell-based, human; conditions: dose-dependent
Procedure: as §6, §7, §2

Cc1cn(C2CC(O)C(COC(c3ccccc3)(c3ccccc3)c3ccccc3)O2)c(=O)[nH]c1=O (stereo not shown) [M13, 1-[4-hydroxy-5-[tri(phenyl)methoxymethyl]oxolan-2-yl]-5-methylpyrimidine-2,4-dione]
apoptosis [1]: increased detachment and apoptosis | tumor size (HCT116p53+/+ cells): decrease of tumor size | detachment [2]: increased detachment | association of FAK and Mdm-2 (complex) [3]: decreased association of FAK and Mdm-2 | optimal, non-toxic doses [4]: 30 to 50 mg/kg | apoptosis [5]: dose-dependent increase detachment and apoptosis | viability [6]: decreased viability of BT474 breast cancer cells in a dose-dependent manner | viability of cancer cells [7]: significantly decreased viability of most cancer cells | tumor size (HCT116p53−/− cells): decrease of tumor size | breast tumorigenesis in vivo (BT474 cells [8]): effectively decreased breast tumorigenesis | effect on viability, detachment and apoptosis [9]: the same as with BT474 cells | detachment [10]: increased detachment | FAK levels (BT474 cells [11]): decreased FAK levels | Mdm-2 levels (BT474 cells [11]): increased Mdm-2 levels | activation of caspase-8 (BT474 cells [11]): caused activation of caspase-8 | apoptosis [12]: increased detachment and apoptosis | viability [13]: equally decreased viability | detachment [14]: dose-dependent increase detachment | viability [15]: equally decreased viability
